Source: patent publication US20260240858A1, “ORAL FORMULATIONS, METHODS OF MANUFACTURE AND USES THEREOF” (Agency For Science, Technology And Research, priority 2019, published 2026)
Read-outs that look alike come from different tables or passages of the source.

Assays:
[1] = Solubility of compound of Formula (I) in water, buffers and surfactant solutions; assay type: physicochemical
Protocol: In water, compound of Formula (I) has a solubility of about 6 μg/mL. At pH 6, the solubility is about 5 μg/mL.

Moisture sorption = assay type: physicochemical; conditions: at above 90% RH
[2] = Particle size by dynamic light scattering; assay type: physicochemical
[3] = Degradation in water with and without SLS; assay type: physicochemical; conditions: after 24 h at 25° C.
[4] = Permeability of compound of Formula (I)
[5] = Flow properties (bulk density, tapped density, Carr's index); assay type: physicochemical; conditions: API alone
Text: Magnesium stearate was included to prevent sticking of the blend to the encapsulator contact parts (Torpac).

## Cn1c(=O)c2c(ncn2CC(=O)Nc2ccc(-c3ccccc3)nn2)n(C)c1=O [compound of Formula (I)]
[1]; 2% w/v SLS in water, pH 8.82, aqueous with cosolvent or surfactant or cyclodextrin, thermodynamic from solid, 2% w/v SLS is water, pH after equilibration 8.82, read-out: Solubility Sample-1
  solubility: 458 µg/mL
[1]; 2% w/v SLS in water, pH 8.82, aqueous with cosolvent or surfactant or cyclodextrin, thermodynamic from solid, 2% w/v SLS is water, pH after equilibration 8.82, read-out: Solubility Sample-2
  solubility: 429 µg/mL
[1]; 2% w/v Tween 80 in pH 3.0 buffer, pH 3, aqueous with cosolvent or surfactant or cyclodextrin, thermodynamic from solid, 2% w/v Tween 80 in pH 3.0 buffer, pH after equilibration 3.16, read-out: Solubility Average (n = 2)
  solubility: 25.2 µg/mL
[1]; 2% w/v Tween 80 in pH 3.0 buffer, pH 3, aqueous with cosolvent or surfactant or cyclodextrin, thermodynamic from solid, 2% w/v Tween 80 in pH 3.0 buffer, pH after equilibration 3.16, read-out: Solubility Sample-1
  solubility: 23.8 µg/mL
[1]; 2% w/v Tween 80 in pH 3.0 buffer, pH 3, aqueous with cosolvent or surfactant or cyclodextrin, thermodynamic from solid, 2% w/v Tween 80 in pH 3.0 buffer, pH after equilibration 3.16, read-out: Solubility Sample-2
  solubility: 26.7 µg/mL
[1]; 2% w/v Tween 80 in water, pH 7.72, aqueous with cosolvent or surfactant or cyclodextrin, thermodynamic from solid, 2% w/v Tween 80 in water, pH after equilibration 7.72, read-out: Solubility Average (n = 2)
  solubility: 22.8 µg/mL
[1]; 2% w/v Tween 80 in water, pH 7.72, aqueous with cosolvent or surfactant or cyclodextrin, thermodynamic from solid, 2% w/v Tween 80 in water, pH after equilibration 7.72, read-out: Solubility Sample-1
  solubility: 22.4 µg/mL
[1]; 2% w/v Tween 80 in water, pH 7.72, aqueous with cosolvent or surfactant or cyclodextrin, thermodynamic from solid, 2% w/v Tween 80 in water, pH after equilibration 7.72, read-out: Solubility Sample-2
  solubility: 23.2 µg/mL
[1]; 5% w/v PVP K 30 in pH 1.2 buffer, pH 1.2, aqueous with cosolvent or surfactant or cyclodextrin, thermodynamic from solid, 5% w/v PVP K 30 in pH 1.2 buffer, pH after equilibration 1.25, read-out: Solubility Average (n = 2)
  solubility: 35 µg/mL
[1]; 5% w/v PVP K 30 in pH 1.2 buffer, pH 1.2, aqueous with cosolvent or surfactant or cyclodextrin, thermodynamic from solid, 5% w/v PVP K 30 in pH 1.2 buffer, pH after equilibration 1.25, read-out: Solubility Sample-1
  solubility: 34.8 µg/mL
[1]; 5% w/v PVP K 30 in pH 1.2 buffer, pH 1.2, aqueous with cosolvent or surfactant or cyclodextrin, thermodynamic from solid, 5% w/v PVP K 30 in pH 1.2 buffer, pH after equilibration 1.25, read-out: Solubility Sample-2
  solubility: 35.2 µg/mL
[1]; 5% w/v PVP K 30 in pH 3.0 buffer, pH 3, aqueous with cosolvent or surfactant or cyclodextrin, thermodynamic from solid, 5% w/v PVP K 30 in pH 3.0 buffer, pH after equilibration 3.12, read-out: Solubility Average (n = 2)
  solubility: 17.9 µg/mL
[1]; 5% w/v PVP K 30 in pH 3.0 buffer, pH 3, aqueous with cosolvent or surfactant or cyclodextrin, thermodynamic from solid, 5% w/v PVP K 30 in pH 3.0 buffer, pH after equilibration 3.12, read-out: Solubility Sample-1
  solubility: 19.9 µg/mL
[1]; 5% w/v PVP K 30 in pH 3.0 buffer, pH 3, aqueous with cosolvent or surfactant or cyclodextrin, thermodynamic from solid, 5% w/v PVP K 30 in pH 3.0 buffer, pH after equilibration 3.12, read-out: Solubility Sample-2
  solubility: 15.8 µg/mL
[1]; 5% w/v PVP K 30 in water, pH 3.96, aqueous with cosolvent or surfactant or cyclodextrin, thermodynamic from solid, 5% w/v PVP K 30 in water, pH after equilibration 3.96, read-out: Solubility Average (n = 2)
  solubility: 15.8 µg/mL
[1]; 5% w/v PVP K 30 in water, pH 3.96, aqueous with cosolvent or surfactant or cyclodextrin, thermodynamic from solid, 5% w/v PVP K 30 in water, pH after equilibration 3.96, read-out: Solubility Sample-1
  solubility: 18.1 µg/mL
[1]; 5% w/v PVP K 30 in water, pH 3.96, aqueous with cosolvent or surfactant or cyclodextrin, thermodynamic from solid, 5% w/v PVP K 30 in water, pH after equilibration 3.96, read-out: Solubility Sample-2
  solubility: 13.5 µg/mL
[1]; 20% w/v SLS in pH 1.2 buffer, pH 1.2, aqueous with cosolvent or surfactant or cyclodextrin, thermodynamic from solid, 20% w/v SLSixpB 1.2 buffer, pH after equilibration 1.33, read-out: Solubility Average (n = 2)
  solubility: 2020 µg/mL
[1]; 20% w/v SLS in pH 1.2 buffer, pH 1.2, aqueous with cosolvent or surfactant or cyclodextrin, thermodynamic from solid, 20% w/v SLSixpB 1.2 buffer, pH after equilibration 1.33, read-out: Solubility Sample-1
  solubility: 1860 µg/mL
[1]; 20% w/v SLS in pH 1.2 buffer, pH 1.2, aqueous with cosolvent or surfactant or cyclodextrin, thermodynamic from solid, 20% w/v SLSixpB 1.2 buffer, pH after equilibration 1.33, read-out: Solubility Sample-2
  solubility: 2170 µg/mL
[1]; 28% w/v SLS in pH 3.0 buffer, pH 3, aqueous with cosolvent or surfactant or cyclodextrin, thermodynamic from solid, 28% w/v SL.S in pH 3.0 baffer, pH after equilibration 2.95, read-out: Solubility Average (n = 2)
  solubility: 404 µg/mL
[1]; 28% w/v SLS in pH 3.0 buffer, pH 3, aqueous with cosolvent or surfactant or cyclodextrin, thermodynamic from solid, 28% w/v SL.S in pH 3.0 baffer, pH after equilibration 2.95, read-out: Solubility Sample-1
  solubility: 394 µg/mL
[1]; 28% w/v SLS in pH 3.0 buffer, pH 3, aqueous with cosolvent or surfactant or cyclodextrin, thermodynamic from solid, 28% w/v SL.S in pH 3.0 baffer, pH after equilibration 2.95, read-out: Solubility Sample-2
  solubility: 415 µg/mL
[1]; 29% w/v Tween 80 in pH 1.2 buffer, pH 1.2, aqueous with cosolvent or surfactant or cyclodextrin, thermodynamic from solid, 29% w/v Tween 80 in pH 1.2 buffer, pH after equilibration 1.25, read-out: Solubility Average (n = 2)
  solubility: 37.2 µg/mL
[1]; 29% w/v Tween 80 in pH 1.2 buffer, pH 1.2, aqueous with cosolvent or surfactant or cyclodextrin, thermodynamic from solid, 29% w/v Tween 80 in pH 1.2 buffer, pH after equilibration 1.25, read-out: Solubility Sample-1
  solubility: 37.3 µg/mL
[1]; 29% w/v Tween 80 in pH 1.2 buffer, pH 1.2, aqueous with cosolvent or surfactant or cyclodextrin, thermodynamic from solid, 29% w/v Tween 80 in pH 1.2 buffer, pH after equilibration 1.25, read-out: Solubility Sample-2
  solubility: 37.1 µg/mL
[1]; 50% w/v Poloxamer 188 in pH 1.2 buffer, pH 1.2, aqueous with cosolvent or surfactant or cyclodextrin, thermodynamic from solid, 50% w/v Poloxamer 188 in pH 1.2 buffer, pH after equilibration 1.25, read-out: Solubility Average (n = 2)
  solubility: 35.5 µg/mL
[1]; 50% w/v Poloxamer 188 in pH 1.2 buffer, pH 1.2, aqueous with cosolvent or surfactant or cyclodextrin, thermodynamic from solid, 50% w/v Poloxamer 188 in pH 1.2 buffer, pH after equilibration 1.25, read-out: Solubility Sample-1
  solubility: 35.6 µg/mL
[1]; 50% w/v Poloxamer 188 in pH 1.2 buffer, pH 1.2, aqueous with cosolvent or surfactant or cyclodextrin, thermodynamic from solid, 50% w/v Poloxamer 188 in pH 1.2 buffer, pH after equilibration 1.25, read-out: Solubility Sample-2
  solubility: 35.4 µg/mL
[1]; 50% w/v Poloxamer 188 in water, pH 7.23, aqueous with cosolvent or surfactant or cyclodextrin, thermodynamic from solid, 50% w/v Poloxamer 188 in water, pH after equilibration 7.23, read-out: Solubility Average (n = 2)
  solubility: 9.63 µg/mL
[1]; 50% w/v Poloxamer 188 in water, pH 7.23, aqueous with cosolvent or surfactant or cyclodextrin, thermodynamic from solid, 50% w/v Poloxamer 188 in water, pH after equilibration 7.23, read-out: Solubility Sample-1
  solubility: 10.9 µg/mL
[1]; 50% w/v Poloxamer 188 in water, pH 7.23, aqueous with cosolvent or surfactant or cyclodextrin, thermodynamic from solid, 50% w/v Poloxamer 188 in water, pH after equilibration 7.23, read-out: Solubility Sample-2
  solubility: 8.39 µg/mL
[1]; 59% w/v Poloxamer 188 in pH 3.0 buffer, pH 3, aqueous with cosolvent or surfactant or cyclodextrin, thermodynamic from solid, 59% w/v Poloxamer 188 in pH 3.0 buffer, pH after equilibration 3.30, read-out: Solubility Average (n = 2)
  solubility: 18.3 µg/mL
[1]; 59% w/v Poloxamer 188 in pH 3.0 buffer, pH 3, aqueous with cosolvent or surfactant or cyclodextrin, thermodynamic from solid, 59% w/v Poloxamer 188 in pH 3.0 buffer, pH after equilibration 3.30, read-out: Solubility Sample-1
  solubility: 18.7 µg/mL
[1]; 59% w/v Poloxamer 188 in pH 3.0 buffer, pH 3, aqueous with cosolvent or surfactant or cyclodextrin, thermodynamic from solid, 59% w/v Poloxamer 188 in pH 3.0 buffer, pH after equilibration 3.30, read-out: Solubility Sample-2
  solubility: 17.9 µg/mL
[1]; citrate buffer, pH 3, aqueous buffer, thermodynamic from solid, pH 3.0 (Citrate buffer), read-out: Solubility Average (n = 2)
  solubility: 7.77 µg/mL
[1]; citrate buffer, pH 3, aqueous buffer, thermodynamic from solid, pH 3.0 (Citrate buffer), read-out: Solubility Sample-1
  solubility: 7.76 µg/mL
[1]; citrate buffer, pH 3, aqueous buffer, thermodynamic from solid, pH 3.0 (Citrate buffer), read-out: Solubility Sample-2
  solubility: 7.78 µg/mL
[1]; hydrochloric acid buffer, pH 1.2, simulated gastric fluid, thermodynamic from solid, pH 1.2 (Hydrochloric acid buffer), read-out: Solubility Average (n = 2)
  solubility: 20.8 µg/mL
[1]; hydrochloric acid buffer, pH 1.2, simulated gastric fluid, thermodynamic from solid, pH 1.2 (Hydrochloric acid buffer), read-out: Solubility Sample-1
  solubility: 20.8 µg/mL
[1]; hydrochloric acid buffer, pH 1.2, simulated gastric fluid, thermodynamic from solid, pH 1.2 (Hydrochloric acid buffer), read-out: Solubility Sample-2
  solubility: 20.9 µg/mL
[1]; pH 2, simulated gastric fluid, At pH 2, read-out: solubility
  solubility: ~8.4 µg/mL
[1]; pH 4, aqueous buffer, At pH 4, read-out: solubility
  solubility: ~6.4 µg/mL
[1]; pH 6, aqueous buffer, At pH 6, read-out: solubility
  solubility: ~5 µg/mL
[1]; water, In water, read-out: solubility
  solubility: ~6 µg/mL
[1]; water, in water, read-out: solubility
  solubility: < 6 µg/mL
[1]; water, pH 7.95, water, thermodynamic from solid, Water, pH after equilibration 7.95, read-out: Solubility Average (n = 2)
  solubility: 5.99 µg/mL
[1]; water, pH 7.95, water, thermodynamic from solid, Water, pH after equilibration 7.95, read-out: Solubility Sample-1
  solubility: 6 µg/mL
[1]; water, pH 7.95, water, thermodynamic from solid, Water, pH after equilibration 7.95, read-out: Solubility Sample-2
  solubility: 5.97 µg/mL
Moisture sorption
  water uptake: about 1%
[2]
  d10: 2-5 μm
  d50: 10-30 μm
  d90: 35-55 μm
[3]; In water
  degradation: about 40%
[3]; water with 2% w/v SLS
  degradation: no (or minimal) degradation
[4]
  permeability: low
[5]
  flow properties of the API: poor flow properties
